Experimental data taken from PMC6268314, “Diterpenoids from the Buds of Pinus banksiana Lamb” (Molecules, 2012).

Tests used:
Type in all cases: cell-based
[1] = tested on: A549, human lung carcinoma cell line; assay: Cytotoxicity assay (Hoechst DNA assay), A549; settings: for IC50: Homo sapiens, A549, concentration inhibiting 50% cell growth, 48 h, mean of three independent assays
Description: (§1) P. banksiana buds were extracted successively with hexanes, CH2Cl2 and MeOH. After solvent evaporation, each extract was investigated for in vitro cytotoxic and antibacterial activities. Cytotoxic activity evaluations were carried out on lung cancer (A549), colorectal cancer (DLD-1) and normal skin fibroblasts (WS1) human cell lines using the Hoechst assay. Antibacterial activity was evaluated against Escherichia coli and Staphylococcus aureus. […] Therefore, following studies were focused on the CH2Cl2 extract that was further separated over column chromatography on silica gel to afford eleven fractions (A–K). All fractions activities were tested against both cancer cell lines and bacterial strains. […] In a next step, fractions F, G, H and K were separated by a combination of chromatographic procedures to afford the three new compounds 1–3 together with 12 known compounds. The structures of the new compounds were determined as follows and the known products were identified by comparison of their spectroscopic data with values found in the literature.
(§2) Lung carcinoma (A549), colorectal adenocarcinoma (DLD-1) and normal skin fibroblast (WS1) human cell lines were obtained from the American Type Culture Collection (ATCC). All cell lines were cultured in minimum essential medium containing Earle’s salts and L-glutamine (Mediatech Cellgro, VA, USA), to which were added 10% fetal bovine serum (Hyclone), vitamins (1X), penicillin (100 I.U./mL) and streptomycin (100 µg/mL), essential amino acids (1X) and sodium pyruvate (1X) (Mediatech Cellgro, VA). Cells were kept at 37 °C in a humidified environment containing 5% CO2. Antibacterial activity was tested on Escherichia coli ATCC 25922 and Staphylococcus aureus ATCC 25923E.
(§3) Exponentially growing cells were plated on 96-well microplates (BD Falcon) at a density of 5 × 10^3 cells per well in 100 μL of culture medium (DMEM with 10% SVF) and were allowed to adhere for 24 h before treatment. Increasing concentrations of each compound in MeOH or DMSO were then added (100 μL per well) and cells were incubated for 48 h. The final concentration of MeOH or DMSO in the culture medium was maintained at 0.25% (v/v) to avoid solvent toxicity. Microplates were then emptied and stored at −80 °C for 24 h. In a next step, 100 μL of SDS (0.01%) were added and the microplates were incubated at room temperature during 3 h before being put back to the cold. After 24 h, cells were prepared for cellular DNA assay with 100 μL of Hoechst dye 33342. Measurements were performed on the same labsystems at 365 and 460 nm wavelengths. Survival percentage was defined as the fluorescene in experimental wells compared to the control wells after subtraction of the blank values. Etoposide was used as positive control. Each experiment was carried out two times in triplicata. IC50 results were expressed as averaged values and the corresponding standard deviations were computed.

[2] = tested on: WS1, human normal skin fibroblasts; assay: Cytotoxicity assay (Hoechst DNA assay), WS1; settings: Skin fibroblast, concentration inhibiting 50% cell growth, 48 h, mean of three independent assays
Description: as §1, §2
as §3, with “Each experiment was carried out two times in triplicata.” left out

[3] = tested on: DLD-1, human colorectal adenocarcinoma cell line; assay: Cytotoxicity assay (Hoechst DNA assay), DLD-1; settings: concentration inhibiting 50% cell growth, 48 h, mean of three independent assays; for IC50: Homo sapiens, DLD-1
Description: as §1, §2, §3

[4] = tested on: Escherichia coli ATCC 25922; assay: Antibacterial microdilution assay (resazurin), E. coli; settings: 6 h at 37 °C
Description: as §2
(§4) Antibacterial activity was evaluated using the microdilution method described by Banfi et al. with some modifications. Exponentially growing bacteria were plated in 96-well flat bottom microplates (BD Flacon) at a density of 5 × 10^3 gram-negative E. coli (ATCC 25922) or 40 × 10^3 gram-positive S. aureus (ATCC 25923) per well in 100 μL nutrient broth (Difco). The concentration of ethanol in the culture medium was maintained at 0.25% (v/v) to avoid solvent toxicity. Thereafter, 50 μL of 4% resazurin was added to each well and the microplates were incubated for 6 h at 37 °C. Fluorescence was measured after 6 h with an automated 96-well Fluoroskan Ascent Fl™ plate reader (Labsystems) using 530 and 590 nm excitation and emission wavelengths.

[5] = tested on: Staphylococcus aureus ATCC 25923; assay: Antibacterial microdilution assay (resazurin), S. aureus; settings: 6 h at 37 °C
Description: as §2, §4

Compound | IC50 ([1]; isolated compounds) [µM] | IC50 ([2]; isolated compounds) [µM] | IC50 ([3]; isolated compounds) [µM] | IC50 ([4]; ATCC25922, isolated compounds) [µM] | IC50 ([5]; ATCC25923, isolated compounds) [µM] | cytotoxicity against lung carcinoma A549 (in words) ([1]; isolated compounds) | IC50 DLD-1 ([3]; isolated compounds) | IC50 ([1]; extracts and fractions) [µg/mL] | IC50 ([2]; extracts and fractions) [µg/mL] | IC50 ([3]; extracts and fractions) [µg/mL] | IC50 ([4]; ATCC25922, extracts and fractions) [µg/mL] | IC50 ([5]; ATCC25923, extracts and fractions) [µg/mL]
C=C(C)c1ccc2c(c1)[C@H](O)CC1[C@](C)(C(=O)O)CCC[C@]21C (stereo partly drawn) [Compound 1, 7α-hydroxyabieta-8,11,13,15-tetraen-18-oic acid] | > 100 | > 100 | > 100 | > 100 | > 100 |  |  |  |  |  |  | 
CC(C)c1ccc2c(c1)[C@H](O)CC1[C@](C)(C(=O)O)CCC[C@]21C (stereo partly drawn) [Compound 10, 7α-hydroxydehydroabietic acid] | > 100 | > 100 | > 100 | > 100 | > 100 |  |  |  |  |  |  | 
CC(C)(O)c1ccc2c(c1)C(=O)C[C@H]1[C@](C)(O)CCC[C@]21C [Compound 13, 18-nor-4,15-dihydroxyabieta-8,11,13-trien-7-one] | 46 ± 3 | > 100 | > 100 | > 100 | > 100 | moderate cytotoxicity | not to DLD-1 |  |  |  |  | 
CC(C)(O)c1ccc2c(c1)C(=O)CC1[C@](C)(CO)CCC[C@]21C (stereo partly shown) [Compound 14, 15,18-dihydroxyabieta-8,11,13-trien-7-one] | > 100 | > 100 | > 100 | > 100 | > 100 |  |  |  |  |  |  | 
CC(C)(O)c1ccc2c(c1)[C@H](O)CC1[C@](C)(C(=O)O)CCC[C@]21C (stereo partly drawn) [Compound 5, 7α,15-dihydroxydehydroabietic acid] | > 100 | > 100 | > 100 | > 100 | > 100 |  |  |  |  |  |  | 
COc1cc([C@@H]2c3cc4c(cc3[C@@H](O[C@@H]3O[C@@H]5CO[C@@H](C)O[C@H]5[C@H](O)[C@H]3O)[C@H]3COC(=O)[C@H]23)OCO4)cc(OC)c1O [Etoposide, reference compound] | 0.7 ± 0.3 | 10 ± 2 | 2.9 ± 0.5 |  |  |  |  | 0.4 ± 0.2 | 5.9 ± 0.6 | 1.7 ± 0.3 |  | 
CC(C)(O)c1ccc2c(c1)[C@H](O)CC1[C@](C)(C=O)CCC[C@]21C (stereo partly drawn) [Compound 4, 7α,15-dihydroxyabieta-8,11,13-trien-18-al] | > 100 | > 100 | > 100 | > 100 | > 100 |  |  |  |  |  |  | 
CC(C)c1ccc2c(c1)C(=O)C[C@H]1[C@](C)(CO)CCC[C@]21C [Compound 12, 7-oxodehydroabietinol] | 34 ± 4 | > 100 | 47 ± 9 | > 100 | > 100 | moderate cytotoxicity |  |  |  |  |  | 
CC(C)c1ccc2c(c1)[C@@H](O)CC1[C@](C)(C(=O)O)CCC[C@]21C (stereo partly drawn) [Compound 11, 7β-hydroxydehydroabietic acid] | > 100 | > 100 | > 100 | > 100 | > 100 |  |  |  |  |  |  | 
CC(C)(O)c1ccc2c(c1)C(=O)CC1[C@](C)(C(=O)O)CCC[C@]21C (stereo partly shown) [Compound 15, 15-hydroxy-7-oxo-abieta-8,11,13-trien-18-oic acid] | > 100 | > 100 | > 100 | > 100 | > 100 |  |  |  |  |  |  | 
O=C(N[C@H](CO)[C@H](O)c1ccc([N+](=O)[O-])cc1)C(Cl)Cl [Chloramphenicol, reference compound] |  |  |  | 0.37 ± 0.06 | > 5 |  |  |  |  |  | 0.12 ± 0.02 | > 1.6
CC(C)c1ccc2c(c1)[C@@H](O)CC1[C@](C)(O)CCC[C@]21C (stereo partly drawn) [Compound 9, 18-nor-abieta-8,11,13-triene-4,7β-diol] | > 100 | > 100 | > 100 | > 100 | > 100 |  |  |  |  |  |  | 
C[C@@]1(CO)CCC[C@]2(C)c3ccc(O)cc3CCC12 (stereo partly shown) [Compound 3] | > 100 | > 100 | > 100 | > 100 | > 100 |  |  |  |  |  |  | 
CC(C)(O)c1ccc2c(c1)[C@@H](O)CC1[C@](C)(C(=O)O)CCC[C@]21C (stereo partly drawn) [Compound 6, 7β,15-dihydroxydehydroabietic acid] | > 100 | > 100 | > 100 | > 100 | > 100 |  |  |  |  |  |  | 
CC(C)(O)c1ccc2c(c1)CC[C@H]1[C@](C)(C(=O)O)CCC[C@]21C [Compound 7, 15-hydroxydehydroabietic acid] | 98 ± 2 | > 100 | > 100 | > 100 | > 100 |  |  |  |  |  |  | 
CC(C)(O)c1ccc2c(c1)C(O)CC1C(C)(CO)CCCC21C (stereo not drawn) [Compound 2, 7β,15,18-trihydroxyabieta-8,11,13-triene] | > 100 | > 100 | > 100 | > 100 | > 100 |  |  |  |  |  |  | 
CC(C)c1ccc2c(c1)[C@H](O)CC1[C@](C)(O)CCC[C@]21C (stereo partly drawn) [Compound 8, 18-nor-abieta-8,11,13-triene-4,7α-diol] | 63 ± 7 | > 100 | 91 ± 9 | > 100 | > 100 |  |  |  |  |  |  | 
